According to paper PMC6151456, “Screening a Natural Product-Based Library against Kinetoplastid Parasites” (Molecules : A Journal of Synthetic Chemistry and Natural …, 2017):
Where two headings read alike, the source gives them in different places.

Assays:
[1] = system: L. donovani DD8 promastigotes; experiment: L. donovani DD8 promastigote viability assay (resazurin); type: cell-based, Leishmania donovani; details: for IC50: 14 point dose response, top 16.7 µM
Protocol: (§1) For the primary screen, compounds were prepared as a stock concentration of 5 mM in 100% DMSO and tested in duplicate points for two independent experiments (n = 2) at final assay concentrations of 20 µM and 16.7 µM for the L. donovani intracellular amastigote and promastigote viability assays, respectively. Primary screening against T. b. brucei was undertaken at 5 µM and for T. cruzi at 10 µM final concentrations. […] These compounds were then retested in a 14 point format to determine the IC50 value against the parasite, and against HEK-293, THP-1 and 3T3 cells to determine the selectivity to the parasite. […] A top dose of 20 µM was used in the T. b. brucei assay and 18.3 µM for T.cruzi assay, in 14 point dose repsonse curves as described.
This assay was established to assess the activity of the compound library on the extracellular form of the parasites. An initial cell density of 1 × 10^5 parasites/mL was inoculated into a 75 cm^2 flask (in a total of 30 mL of M199 medium + 10% (v/v) HIFBS) and incubated at 27 °C. After 96 h the parasites reached the mid-log phase and were seeded in black, clear bottom 384-well plates (Greiner-bio-one®, Monroe, UT, USA) at a concentration of 5 × 10^5 parasites/mL in a volume of 55 µL using a Bravo automated liquid handling platform (Agilent, Santa Clara, CA, USA). Compound stocks were diluted 1:25 in M199 media without HIFBS using a dilution plate (Greiner-bio-one®, Monroe, UT, USA). The compounds were dispensed in 5 µL using a Bravo and parasites incubated for an additional 68 h at 27 °C. Resazurin (Cayman Chemicals®, Ann Arbor, MI, USA) at 0.142 mM final assay concentration was then dispensed into plates at a volume of 10 µL/well using a Multidrop™ 384 Reagent Dispenser (Thermo Scientific®, Newington, NH, USA) and incubated at 27 °C. The plates were read after 4 h on an EnVision™ Multilabel plate reader (PerkinElmer, Waltham, MA, USA) using fluorometry with an excitation of 530 nm and emission 590 nm. For the L. donovani DD8 promastigote viability assay, 1 µM of amphotericin B was used as positive control and 0.4% DMSO as negative control.

[2] = system: T. cruzi intracellular amastigotes; experiment: T. cruzi intracellular amastigote image-based assay; type: cell-based, Trypanosoma cruzi; details: for IC50: n = 2, top 18.3 µM
Protocol: as §1
(§2) The efficacy of compounds against T. cruzi was undertaken using a phenotypic, high-throughput image-based assay as previously described.

HEK-293 cells = experiment: HEK-293 resazurin viability assay (cytotoxicity, selectivity); type: cell-based, human
Protocol: (§3) Primary screening against T. b. brucei was undertaken at 5 µM and for T. cruzi at 10 µM final concentrations.
Cytotoxicity testing was undertaken as previously described.

3T3 host cells = experiment: 3T3 host cell cytotoxicity (selectivity); type: cell-based, mouse; details: relative to T. cruzi
Protocol: as §3, §2

[3] = system: T. b. brucei bloodstream form strain 427; experiment: T. b. brucei resazurin viability assay; type: cell-based, Trypanosoma brucei brucei
Protocol: as §1
The efficacy of compounds against T. b. brucei bloodstream form was evaluated using a resazurin-based assay, previously described in the literature.

[4] = system: L. donovani DD8 intracellular amastigotes; experiment: L. donovani DD8 intracellular amastigote high content imaging assay; type: cell-based, Leishmania donovani; details: 14 point dose response, top 20 µM
Protocol: as §1
A high content, high-throughput imaging assay was used to identify compounds active against L. donovani DD8 intracellular amastigotes as described previosuly.

THP-1 cells = experiment: THP-1 cytotoxicity (selectivity); type: cell-based, human
Protocol: as §1

P. falciparum (3D7) = details: cited from earlier work
P. falciparum (Dd2) = details: read-out: IC50, P. falciparum Dd2; cited from earlier work
[5] = Leishmania donovani, at 16.7 µM
[6] = Trypanosoma cruzi, intracellular amastigotes, read-out: IC50 (mean ± SD), T. cruzi
[7] = Trypanosoma brucei, n = 2, 14 point dose response, top 20 µM, read-out: IC50 (mean ± SD), T. b. brucei
[8] = Trypanosoma brucei, reference compounds, read-out: IC50, T. b. brucei
[9] = n = 2, 14 point dose response, top 20 µM, read-out: IC50 (mean ± SD), T. b. brucei
[10] = Leishmania donovani, read-out: IC50 (mean ± SD), L. donovani DD8 intracellular amastigotes, n = 2
[11] = relative to L. donovani DD8 intracellular amastigotes
[12] = relative to L. donovani DD8 promastigotes
[13] = Leishmania donovani, n = 2, read-out: IC50 (mean ± SD), L. donovani DD8 intracellular amastigotes

Compound	IC50 [2, 6]	Selectivity index (SI) compared to HEK-293 cells (HEK-293 cells; relative to T. cruzi)	Selectivity index (SI) compared to 3T3 cells (3T3 host cells)	IC50 [3, 7]	Selectivity index (SI) compared to HEK-293 cells (HEK-293 cells; relative to T. b. brucei)	Selectivity index (SI) compared to HEK-293 cells (HEK-293 cells; [11])	Selectivity index (SI) compared to THP-1 cells (THP-1 cells; [11])	other results
O=C1C2=C(C(=O)c3ccccc31)S(=O)(=O)CCN2 [Compound 9, 3,4-dihydro-2H-naphtho[2,3-b][1,4]thiazine-5,10-dione 1,1-dioxide]	3820 ± 610 nM	1.11	1.24	–	–	–	–	inhibition at 16.7 µM [1, 5]: 100%; IC50 ([2]; intracellular amastigotes, listed as 3,4-Dihydro-2H-naphtho[2,3-b]-[1,4] thiazine-5,10-dione 1,1-dioxide (9), read-out: IC50 (mean ± SD), T. cruzi): 3810 ± 600 nM
N=C(N)c1ccc(/N=N/Nc2ccc(C(=N)N)cc2)cc1 [Diminazene]	–	–	–	40 ± 10 nM	> 962.75	–	–	IC50 [3, 8]: 40.5 ± 12.8 nM
O=C1N[C@@H]2C(=C[C@H](O)[C@@H](O)[C@H]2O)c2cc3c(c(O)c21)OCO3 [Compound 6, Narciclasine]	–	0.21	3.28	–	1.09	–	–	inhibition of L. donovani DD8 promastigotes ([1]; at 16.7 µM): 100% inhibition at 16.7 µM; IC50 [3, 9]: 30 ± 10 nM; IC50 ([2]; intracellular amastigotes, read-out: IC50 (mean ± SD), T. cruzi): 200 ± 10 nM
N=C(N)c1ccc(OCCCCCOc2ccc(C(=N)N)cc2)cc1 [Pentamidine]	–	–	–	2 ± 1 nM	> 334.52	–	–	IC50 [3, 8]: 2.86 ± 1.46 nM
COc1c(OC)c2c(c(CCN(C)C)c1SC)Sc1c(CCN(C)C)c(SC)c(OC)c(OC)c1S2 [Compound 1, Lissoclinotoxin E]	–	> 2.52	> 4.67	–	> 17.68	> 2.26	1.13	IC50 [4, 10]: < 5000 nM; IC50 ([4]; read-out: IC50 (mean ± SD), L. donovani DD8 intracellular amastigotes, n = 2, listed as Lissoclinotoxin E (1)): 4410 ± 240 nM; IC50 ([2]; Trypanosoma cruzi, read-out: IC50 (mean ± SD), T. cruzi, intracellular amastigotes): < 5000 nM; IC50 ([2]; read-out: IC50 (mean ± SD), T. cruzi, intracellular amastigotes, listed as Lissoclinotoxin E (1)): 3920 ± 380 nM; Selectivity index (SI) compared to HEK-293 cells (HEK-293 cells; [12]): > 11.72; Selectivity index (SI) compared to THP-1 cells (THP-1 cells; [12]): 6.88
COc1c(SC)c(CCN(C)C)c2sc3c(CCN(C)C)c(SC)c(OC)c(OC)c3ssc2c1OC [Compound 11, Lissoclinotoxin F]	–	–	–	–	–	> 2.40	> 1.20	IC50 ([1]; Leishmania donovani, read-out: IC50 (mean ± SD), L. donovani DD8 promastigotes, n = 2): 5510 ± 300 nM; IC50 [4, 10]: 8310 ± 670 nM; Selectivity index (SI) compared to HEK-293 cells (HEK-293 cells; [12]): > 3.62; Selectivity index (SI) compared to THP-1 cells (THP-1 cells; [12]): > 1.81
Spermatinamine [Compound 2]	–	–	–	–	5.89	0.64	0.80	IC50 ([1]; n = 2, read-out: IC50 (mean ± SD), L. donovani DD8 promastigotes): 11900 ± 560 nM; IC50 ([4]; n = 2, read-out: IC50 (mean ± SD), L. donovani DD8 intracellular amastigotes): 6150 ± 50 nM; IC50 [3, 9]: 1000 ± 260 nM; Selectivity index (SI) compared to HEK-293 cells (HEK-293 cells; [12]): 0.33; Selectivity index (SI) compared to THP-1 cells (THP-1 cells; [12]): 0.41; IC50 (P. falciparum (3D7); read-out: antimalarial IC50, P. falciparum (3D7)): 230 nM
O=C(Cn1ccnc1[N+](=O)[O-])NCc1ccccc1 [Benznidazole, reference compound]	3360 ± 1520 nM	> 44.84	–	–	–	–	–	–
COc1c(C)c2c(c(O)c1C/C=C(\C)CCC(=O)O)C(=O)OC2 [Compound 5, Mycophenolic acid, reference compound]	1590 ± 30 nM	0.37	0.13	510 ± 100 nM	1.01	–	–	–
CC(C)=CCC[C@]1(C)C=Cc2c(O)c3c(c(CC=C(C)C)c2O1)O[C@]12C(=C[C@@H]4C[C@H]1C(C)(C)O[C@@]2(C/C=C(/C)C(=O)O)C4=O)C3=O [Compound 4, Gambogic acid]	1870 ± 70 nM	1.50	1.00	270 ± 40 nM	7.11	–	–	inhibition at 16.7 µM [1, 5]: 100%
C[C@@H]1[C@H](O)[C@@H](C)/C=C/C=C/C=C/C=C/C=C/C=C/C=C/[C@H](O[C@@H]2O[C@H](C)[C@@H](O)[C@H](N)[C@@H]2O)C[C@@H]2O[C@](O)(C[C@@H](O)C[C@@H](O)[C@H](O)CC[C@@H](O)C[C@@H](O)CC(=O)O[C@H]1C)C[C@H](O)[C@H]2C(=O)O [Amphotericin B, reference compound]	–	–	–	–	–	> 41.65	> 9.61	IC50 ([1]; Leishmania donovani, n = 2, read-out: IC50 (mean ± SD), L. donovani DD8 promastigotes): 120 ± 10 nM; IC50 [4, 13]: 200 ± 20 nM; Selectivity index (SI) compared to HEK-293 cells (HEK-293 cells; [12]): > 68.27; Selectivity index (SI) compared to THP-1 cells (THP-1 cells; [12]): > 16.39
Psammaplysin F [Compound 14]	–	> 3.51	> 1.90	–	–	–	–	IC50 ([2]; intracellular amastigotes, listed as Psammaplysin F (14), read-out: IC50 (mean ± SD), T. cruzi): 5630 ± 760 nM; IC50 (P. falciparum (3D7); read-out: IC50, P. falciparum 3D7): 870 nM; IC50 (P. falciparum (Dd2)): 1400 nM
CC1CS(=O)(=O)CCN1/N=C/c1ccc([N+](=O)[O-])o1 (centres unmarked) [Nifurtimox, reference compound]	620 ± 100 nM	> 243.03	–	–	–	–	–	–
CCOC(=O)c1c(C)n(-c2ccc(OC)cc2)c2ccc(O)c(CN(CC)CC)c12 [Compound 12, ethyl 4-((diethylamino)methyl)-5-hydroxy-1-(4-methoxyphenyl)-2-methyl-1H-indole-3-carboxylate]	–	–	–	–	–	> 2.97	> 1.50	inhibition at 16.7 µM [1, 5]: 100%; IC50 [4, 13]: 11100 ± 310 nM; activity against T. b. brucei [3]: no significant activity; activity against T. cruzi [2]: no significant activity
COc1ccc(C[C@H](N)C(=O)N[C@H]2[C@@H](O)[C@H](n3cnc4c(N(C)C)ncnc43)O[C@@H]2CO)cc1 [Puromycin, reference compound]	1650 ± 350 nM	0.150	–	30 nM	12.96	–	–	IC50 [3, 8]: 39 ± 6.09 nM
